Experimental data published in publication PMC12775434, “Ultra-large virtual screening unveils potent agonists of the neuromodulatory orphan receptor GPR139” (Nature Communications, 2025).

Legend:
[1] = Metabolic stability in the presence of mouse liver microsomes; type: in vitro ADME; details: pH 7.4, read-out: intrinsic clearance, CLint
Protocol: Metabolic stability was determined in 0.5 mg/ml mouse liver microsomes at a compound concentration of 1 μM in 100 mM KPO4 buffer, pH 7.4, in a total incubation volume of 500 μl. The reaction was initiated by addition of 1 mM NADPH. At various incubation times, i.e., at 0, 5, 10, 20, 40, and 60 min, a sample was withdrawn from the incubation, and the reaction was terminated by addition of cold acetonitrile with warfarin as an internal standard. The amount of parent compound remaining was analyzed by LC-MS/MS[70].

GPR139 = biological target: T1, GPR139 (Homo sapiens, UniProt Q6DWJ6); assay: Signaling pathway panel at GPR139 (Gi2, Gi3, GoA, Gq, G12, Ca2+, arrestin-3), HEK293A; type: cell-based; set-up: expressed in transfected cells; host or cells: HEK293A (transient, Lipofectamine 2000); details: for fold more potent than the R-enantiomer: across individual signaling pathways
T1 sequence (Q6DWJ6 1-353): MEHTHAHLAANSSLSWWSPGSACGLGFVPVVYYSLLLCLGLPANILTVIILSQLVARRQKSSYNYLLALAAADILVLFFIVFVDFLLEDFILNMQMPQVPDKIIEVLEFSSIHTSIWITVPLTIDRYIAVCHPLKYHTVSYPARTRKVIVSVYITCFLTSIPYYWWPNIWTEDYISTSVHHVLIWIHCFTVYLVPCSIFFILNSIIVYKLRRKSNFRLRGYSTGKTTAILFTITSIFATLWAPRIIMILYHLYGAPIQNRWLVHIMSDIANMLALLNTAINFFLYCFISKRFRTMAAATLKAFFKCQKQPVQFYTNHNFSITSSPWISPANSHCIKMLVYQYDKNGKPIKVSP
Protocol: We evaluated the signaling pathways activated by the potent agonist 1.1 and JNJ-63533054 compounds through GPR139. […] As all our screens of analogs were performed with racemic mixtures, we synthesized compound 1.1 as pure S- and R-enantiomer (1.1(S) and 1.1(R), respectively) along with JNJ-63533054 (JNJ(S)) and its R-enantiomer (JNJ(R)). Detailed synthetic procedures are described in the Supplementary Methods. We then characterized these four compounds in assays measuring the activation of Gi2, Gi3, GoA, Gq, and G12 proteins, intracellular calcium mobilization, and arrestin-3 recruitment. G protein activation was measured using a BRET-based Gα-specific G protein dissociation assay[57] and arrestin-3 recruitment was measured with an enhanced bystander BRET assay[58] (Fig. 5a).
HEK293A cells were reverse-transfected with human GPR139 for Ca^2+ mobilization experiments with transiently expressed GPR139. The construct has been generated and described previously by Nøhr et al.. DNA and Lipofectamine 2000 Transfection Reagent (ThermoFisher #11668019) were separately diluted in Opti-MEM I Reduced Serum Medium (ThermoFisher #31985070). 10 ng GPR139 DNA and 250 nL Lipofectamine were used for each well. The dilutions were incubated at room temperature for 5 min. Then, DNA and Lipofectamine dilutions were combined in 1:1 volumetric ratio and incubated at room temperature for 20 min to obtain the transfection solutions. 10 µL transfection solution and 20,000 cells in 100 µL growth medium were distributed in each well of black clear bottom tissue culture treated 96-well plates that were previously coated with poly-D-lysine (Sigma-Aldrich #P0899). Cells were grown for approximately 48 h. A calcium mobilization assay was performed as described.
The G protein dissociation assay developed by the lab of Kirill A. Martemyanov was used to measure the coupling of multiple G proteins by GPR139[57]. The assay was performed as described previously with minor modifications. […] Simultaneous dual emission was measured at 535 nm and 475 nm on LUMIstar Omega Microplate Reader (BMG Labtech) at room temperature. […]

Cc1cscc1-c1nc(CC(=O)N[C@@H](C)c2ccccc2)no1 [1.1(S)]
microsomal CLint at 1 μM [1]: 1370 µL/min/mg
fold more potent than the R-enantiomer (GPR139): 13- to 63 fold
EC50 (GPR139; range over pathways, read-out: EC50 for stimulating the individual signaling pathways at GPR139): 13 to 200 nM

CC(NC(=O)CNC(=O)c1cccc(Cl)c1)c1ccccc1 (centres unmarked) [JNJ-63533054, reference compound]
fold more potent than the R-enantiomer (GPR139): 40- to 158 fold

Cc1nocc1-c1nc(CC(=O)NC(C)c2ccccc2)no1 (centres unmarked) [Compound 1.5, CC(C1=CC=CC=C1)NC(CC2=NOC(C3=CON=C3C)=N2)=O]
microsomal CLint at 1 μM [1]: 46 µL/min/mg
